# Source: patent US20090131422A1, “Salts of an IKK inhibitor” (Millennium Pharmaceuticals, Inc., priority 2007, published 2009)
# Structures can show the parent of a compound that is named as a salt.
# Legend:
# [1] = Gravimetric vapor sorption (GVS); type: physicochemical; conditions: 25° C.
# Protocol: Gravimetric Vapor Sorption (GVS): Gravimetric vapor sorption (GVS) data are collected using either i) a SGA-100 Water Vapor Sorption Analyzer from VTI Corporation. Sample sizes are typically 5-10 mg. A moisture adsorption/desorption isotherm is recorded by subjecting samples to a series of relative humidity (RH) steps at a constant temperature of 25° C.; or ii) a Hiden IGASorp moisture sorption analyser running CFRSorp software, IGA Systems Software V3.00.23 and IGASorp Controller Version 1.10. Sample sizes are typically 10 mg. A moisture adsorption/desorption isotherm iserformed in the following way: Samples are loaded/unloaded at typical room humidity and temperature (40% RH, 25° C.) and analysed afterwards by XRPD. The isotherm run is two complete cycles. Each cycle begins at 40% RH and using 10% RH intervals goes to 90% RH then Dry then 40% RH.
# physchem = conditions: water
# Protocol: Solubility: The water solubility of the Tartrate and Mono-HCl Salt was measured at ambient temperature.
smiles,measurement,setting,value
"C[C@@H]1CN(C(=O)CN2CC(C)(C)OC[C@H]2C(=O)Nc2cc(Cl)cc3c2[nH]c2cnccc23)C[C@H](C)O1 [Mono-Hydrochloride Salt, (S)—N-(6-chloro-9H-pyrido[3,4-b]indol-8-yl)-4-(2-((2S,6R)-2,6-dimethylmorpholino)-2-oxoethyl)-6,6-dimethylmorpholine-3-carboxamide mono-hydrochloride]",moisture uptake at 70% RH,[1]; mono-hydrochloride,0.23%
same,moisture uptake at 90% RH,[1]; mono-hydrochloride,1.7%
"C[C@@H]1CN(C(=O)CN2CC(C)(C)OC[C@H]2C(=O)Nc2cc(Cl)cc3c2[nH]c2cnccc23)C[C@H](C)O1 [free base, (S)—N-(6-chloro-9H-pyrido[3,4-b]indol-8-yl)-4-(2-((2S,6R)-2,6-dimethylmorpholino)-2-oxoethyl)-6,6-dimethylmorpholine-3-carboxamide]",solubility,physchem,~10 µg/mL
"C[C@@H]1CN(C(=O)CN2CC(C)(C)OC[C@H]2C(=O)Nc2cc(Cl)cc3c2[nH]c2cnccc23)C[C@H](C)O1 [Tartrate Salt, (S)—N-(6-chloro-9H-pyrido[3,4-b]indol-8-yl)-4-(2-((2S,6R)-2,6-dimethylmorpholino)-2-oxoethyl)-6,6-dimethylmorpholine-3-carboxamide hemi-L-tartrate hydrate]",moisture uptake at 70% RH,[1],1.3%
same,moisture uptake at 90% RH,[1],2.4%
same,hygroscopicity,[1]; vapor sorption profile,relatively non-hygroscopic
"C[C@@H]1CN(C(=O)CN2CC(C)(C)OC[C@H]2C(=O)Nc2cc(Cl)cc3c2[nH]c2cnccc23)C[C@H](C)O1 [Malonate Salt, (S)—N-(6-chloro-9H-pyrido[3,4-b]indol-8-yl)-4-(2-((2S,6R)-2,6-dimethylmorpholino)-2-oxoethyl)-6,6-dimethylmorpholine-3-carboxamide malonate]",moisture uptake from 40-90% RH,[1]; 40-90% RH,1.5 wt %
